This is an account of results in patent US9504729B2, “Antiangiogenic small molecules and methods of use” (The United States of America, as represented by the …, priority 2009, dated 2016).

One experiment deals with FGFR1 (Homo sapiens, UniProt P11362). The experiment can be described thus: SelectScreen kinase activity profiling, FGFR1. Set-up: concentration or dose not given beside the values. It counts as biochemical. To be noted: for Mean % Inhibition: mean of two independent trials. The source says:
To characterize the RTK inhibitory activity of the antiangiogenic SMs described herein, 36 compounds were chosen and screened using Invitrogen's SelectScreen® kinase activity profiling service (described on-line at tools.invitrogen.com/content.cfm?pageid=10413#selection). VEGFR1 and FGFR2 RTK inhibitory activities were studied. […] Overall, a small minority of the SMs tested had any substantial kinase inhibitory activity. This observation supports a mechanism of antiangiogenic action other than RTK inhibition for most of the SMs described herein.

In another experiment the target is KDR(VEGFR2) (Homo sapiens, UniProt P35968). The experiment can be described thus: SelectScreen kinase activity profiling, KDR(VEGFR2). It counts as biochemical. Also on record: % Inhibition / Mean % Inhibition: concentration or dose not given beside the values. To be noted: KDR(VEGFR2); for Mean % Inhibition: mean of two independent trials.
The mark [1] stands for this setting: first of two independent trials.
Setting [2] is: second of two independent trials.

Each structure is given as a SMILES string.

Sequence of FGFR1 (P11362 398-822 limits assumed): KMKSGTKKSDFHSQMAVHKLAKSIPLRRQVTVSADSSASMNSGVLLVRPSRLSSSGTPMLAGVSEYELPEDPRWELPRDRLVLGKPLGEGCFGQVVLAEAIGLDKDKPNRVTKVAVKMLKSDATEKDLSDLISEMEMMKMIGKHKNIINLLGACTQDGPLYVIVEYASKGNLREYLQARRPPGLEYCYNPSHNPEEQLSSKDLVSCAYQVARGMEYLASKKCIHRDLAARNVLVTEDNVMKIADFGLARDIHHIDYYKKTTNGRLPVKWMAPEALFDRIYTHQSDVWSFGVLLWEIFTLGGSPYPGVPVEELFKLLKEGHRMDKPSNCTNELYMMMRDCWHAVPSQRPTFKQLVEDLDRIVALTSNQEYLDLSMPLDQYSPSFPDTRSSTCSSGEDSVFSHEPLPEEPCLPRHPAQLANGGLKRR
Sequence of KDR(VEGFR2) (P35968 20-1356): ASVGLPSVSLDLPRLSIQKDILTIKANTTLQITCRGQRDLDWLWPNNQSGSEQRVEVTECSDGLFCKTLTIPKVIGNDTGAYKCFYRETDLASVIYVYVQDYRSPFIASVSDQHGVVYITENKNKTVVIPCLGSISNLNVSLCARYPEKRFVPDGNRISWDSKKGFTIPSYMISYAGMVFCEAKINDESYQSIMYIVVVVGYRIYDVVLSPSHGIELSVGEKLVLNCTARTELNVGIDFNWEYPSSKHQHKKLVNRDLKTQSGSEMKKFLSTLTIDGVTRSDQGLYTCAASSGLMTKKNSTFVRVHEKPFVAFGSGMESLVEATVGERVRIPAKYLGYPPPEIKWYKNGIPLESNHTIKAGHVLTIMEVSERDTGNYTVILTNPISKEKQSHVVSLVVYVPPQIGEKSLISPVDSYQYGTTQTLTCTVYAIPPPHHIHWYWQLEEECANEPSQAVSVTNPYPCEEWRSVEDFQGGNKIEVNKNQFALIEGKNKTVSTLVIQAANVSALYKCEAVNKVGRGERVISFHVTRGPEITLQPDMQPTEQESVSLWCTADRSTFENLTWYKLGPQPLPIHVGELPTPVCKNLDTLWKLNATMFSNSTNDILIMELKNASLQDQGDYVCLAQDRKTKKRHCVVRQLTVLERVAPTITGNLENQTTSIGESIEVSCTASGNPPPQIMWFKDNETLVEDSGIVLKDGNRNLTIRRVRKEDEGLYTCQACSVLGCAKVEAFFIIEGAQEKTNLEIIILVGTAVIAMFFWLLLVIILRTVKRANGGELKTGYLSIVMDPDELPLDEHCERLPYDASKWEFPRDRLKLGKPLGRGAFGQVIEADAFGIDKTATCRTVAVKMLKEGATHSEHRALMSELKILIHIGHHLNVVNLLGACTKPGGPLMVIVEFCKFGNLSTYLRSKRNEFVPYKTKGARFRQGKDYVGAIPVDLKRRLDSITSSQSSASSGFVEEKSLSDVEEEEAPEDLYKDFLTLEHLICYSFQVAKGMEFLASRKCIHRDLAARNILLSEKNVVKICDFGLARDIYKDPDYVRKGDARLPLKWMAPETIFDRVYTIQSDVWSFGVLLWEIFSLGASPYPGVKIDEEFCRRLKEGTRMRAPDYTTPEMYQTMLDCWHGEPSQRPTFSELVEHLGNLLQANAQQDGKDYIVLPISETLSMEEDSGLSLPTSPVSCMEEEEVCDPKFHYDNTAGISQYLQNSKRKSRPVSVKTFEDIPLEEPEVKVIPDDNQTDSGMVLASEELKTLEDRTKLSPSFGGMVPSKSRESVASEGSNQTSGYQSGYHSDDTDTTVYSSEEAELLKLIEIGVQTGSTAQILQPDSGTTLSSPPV

As to `CCC(=O)OCN1C(=O)C=CC1=O` [compound 19630], the % Inhibition (as a rule, the change of the read-out against control, counted positive when it falls) on FGFR1 (setting [1]) is reported as 2%; on FGFR1 (setting [2]) it was −2%; on KDR(VEGFR2) (setting [1]), 90%; at KDR(VEGFR2) (setting [2]), 91%. The “Mean % Inhibition” value at FGFR1 was 0%; at KDR(VEGFR2), 90%.
With `O=C1C(=Cc2ccccc2)C(NC2CCCCC2)c2ccccc21` (stereo not drawn) [compound 150117], the “% Inhibition” value at FGFR1 (setting [1]) was 2%; at FGFR1 (setting [2]), 7%; on KDR(VEGFR2) (setting [1]), 28%; at KDR(VEGFR2) (setting [2]) it was 24%. Also, the entries for the “Mean % Inhibition” value at FGFR1 and on KDR(VEGFR2) were 5% and 26%, respectively.
For `COc1ccc(CC2C(=O)NC(C)C(=O)N(C)C3Cc4ccc(cc4)Oc4cc(ccc4O)CC(C(=O)NC(C)C(=O)NC(C)C(=O)N2C)N(C)C3=O)cc1` (stereo not drawn) [compound 259969], the “% Inhibition” value on FGFR1 (setting [1]) was 3%; at FGFR1 (setting [2]) it was 3%; at KDR(VEGFR2) (setting [1]), 0%; on KDR(VEGFR2) (setting [2]), 9%. For the same compound, the “Mean % Inhibition” value at FGFR1 is 3%; on KDR(VEGFR2), 5%.
Take `COc1cc2cc(c1Cl)N(C)C(=O)CC(OC(=O)C(C)C)C1(C)OC1C(C)C1CC(O)(NC(=O)O1)C(OC)/C=C/C=C(\C)C2` (stereo not drawn) [compound 292222]: the “% Inhibition” value at FGFR1 (setting [1]) is 2%; on FGFR1 (setting [2]) it was 5%; at KDR(VEGFR2) (setting [1]), 8%; on KDR(VEGFR2) (setting [2]) it was 7%. Besides, the entries for the “Mean % Inhibition” value on FGFR1 and at KDR(VEGFR2) were 3% and 7%, respectively.
On to `CC1CCN(CC[S-])CC1.O.O.[Cl][Pt+]` [compound 292596], for which the “% Inhibition” value at FGFR1 (setting [1]) was determined as 4%; on FGFR1 (setting [2]) it was 4%; at KDR(VEGFR2) (setting [1]), 9%; at KDR(VEGFR2) (setting [2]) it was 18%. Moreover, the “Mean % Inhibition” value at FGFR1 is 4%; on KDR(VEGFR2), 14%.
